Columns and labels:
[1] = test system: Daudi (B lymphoma); assay: Anti-proliferative activity, Daudi; format: cell-based; conditions: Homo sapiens, read-out: Cell proliferation, IC50
[2] = test system: MOLT-4 (acute lymphoblastic leukemia); assay: Anti-proliferative activity, MOLT-4; format: cell-based; conditions: Homo sapiens, read-out: Cell proliferation, IC50
[3] = Body weight change in MV4-11 xenograft mice; format: in vivo, NOD/SCID mice; conditions: 50 and 100 mpk, PO
Description: (§1) A total of 48 NOD/SCID female mice of 6-8 weeks age and weighing approximately 18 to 22 g, purchased from HFK (Beijing HFK Bio-Technology Co. Ltd.), were used for tumor inoculation.
Each mouse was inoculated subcutaneously at the right flank with MV4-11 tumor cells (1×10^7 cells) in mixture of 100 ul PBS and 100 ul of Matrigel™ for tumor development. A total of […] mice were used for each group. The amounts of treated compounds are represented in milligram (mg) of compound per kilogram (kg) of animal body weight (mg/kg, mpk). Administration route of the test compound was PO (oral) injection. Three groups, i.e., vehicle group (Control group), 50 mpk group (treatment at 50 mpk of compound 1 through PO injection) and 100 mpk group (treatment at 100 mpk of compound 1 through PO injection) of mice were used. The overall administration schedule was 2 cycles of treatment for 5 days (5 d ON), followed by 2 days of non-treatment (2 d OFF).

[4] = Pharmacokinetics in beagle dogs; format: in vivo; conditions: plasma, dog, 3 mg/kg
Description: For serum compound analysis, blood samples were collected by cardiac puncture over 24 hr time course. 20 μL of spiked plasma was added into a 96-well plate, adding ten volumes of internal standard (IS) in acetonitrile (ACN) to the obtained precipitated protein mixed thoroughly, centrifuged at 4,000 rpm for 10 min. 150 μL of supernatant thus obtained was transferred to another pre-labeled 96-well plate, mixed with 150 μL of water. 5 μL or 10 μL of the mixture was injected into the LC-MS system under the following conditions:
Column: API-4000+Waters UPLC (TCLM08);
Lower limit of quantification (LLOQ) was at 1 ng/mL. Pharmacokinetic parameters of half-life (T1/2), clearance (CL), maximum plasma concentration (Cmax), mean residence time (MRT) and bioavailability (F %), plasma exposure (AUC) of the compound were calculated using Phoenix WinNonlin 6.3 (non-compartmental model).
Further, pharmacokinetics of Compound 1 in dog was evaluated in beagle dogs following IV administration at 3 mg/kg and PO administration at 3 mg/kg dose level, respectively.

[5] = test system: MV4-11 human leukemia xenograft; assay: Tumor growth inhibition in MV4-11 human leukemia mouse xenograft; format: in vivo, NOD/SCID mice; conditions: PO, 5 d ON/2 d Off × 2 (14 days)
Description: Tumor growth inhibition (TGI) activities of compound 1 were tested in MV4-11 human leukemia mouse xenograft.
as §1
The MV4-11 cell line was maintained in vitro in IMDM (Iscove's modified Dulbecco's media) supplemented with 10% fetal bovine serum at 37° C. in an atmosphere of 5% CO2 in air. The tumor cells were routinely subcultured twice weekly by trypsin-EDTA treatment. The cells growing in an exponential growth phase were harvested and counted for tumor inoculation. The treatments were started when the tumor size reached approximately 150-200 mm^3.
Each mouse was inoculated subcutaneously at the right flank with MV4-11 tumor cells (1×10^7 cells) in mixture of 100 ul PBS and 100 ul of Matrigel™ for tumor development. A total of […] mice were used for each group. The amounts of treated compounds are represented in milligram (mg) of compound per kilogram (kg) of animal body weight (mg/kg, mpk). Administration route of the test compound was PO (oral) injection. […]
Tumor sizes were measured using a caliper, once every 4 days, and the tumor volume was expressed in mm^3 using Equation 1: V=0.5a×b^2 [Equation 1] […]

[6] = test system: MOLM13 (acute myeloid Leukemia); assay: Anti-proliferative activity, MOLM13; format: cell-based; conditions: Homo sapiens, MOLM-13, read-out: Cell proliferation, IC50
[7] = Mouse liver microsomal stability/clearance; format: in vitro ADME; conditions: mouse liver microsomes; second value of Human/Mouse cell; read-out: Liver microsomal clearance (Mouse)
Description: (§2) Human and mouse liver microsomal clearance assays were carried out in CROWN Biosciences (Taicang, China). The human liver microsomes (Cat No. X008067, Lot No. KQB) and mouse liver microsomes (Cat No. M1000, Lot No. 1210302) were purchased from Celsis and Xenotech, respectively.
(§3) 5 μL of test compound stock solution was diluted with 495 μL of 1:1 Methanol/Water (final concentration: 100 μM, 50% MeOH) and combined with 534 μL of the respective liver microsome solution (final concentration: 1.111 μM, 0.555% MeOH). The final concentration of the liver microsome solution was 0.7 mg protein/mL.
(§4) Incubations of the liver microsome solutions were performed in a 96 well plate at 37° C. 90 μL of the liver microsome solutions were added to Blank, and 90 μL of working solution of the test compound was added to all plates except the Blank.
(§5) All plates thus obtained were warmed in water bath at 37° C. for 10 min, and 10 μL of NADPH co-factor solution comprising 42 mg of β-nicotinamide adenine dinucleotide phosphate (Sigma Cat. No. N0505 Lot 020M7009V), 84 mg of isocitric acid (Sigma Cat. No. 11252 Lot 119K1099) and 0.478 mL of isocitric dehydrogenase (Sigma Cat. No. 12002 Lot 086K7055, 15 units/mg protein, warmed in water bath at 37° C. for 5 min was added to the plates. The resulting plates were incubated at 37° C. in the following order: T60 (The test compounds were incubated with the liver microsomal solution and NADPH for 60 min at 37° C.), T30 (such as for 30 min.), and T10 (such as for 10 min.). 300 μL of a cold (4° C.) stop solution (acetonitrile (ACN) including 500 nM of tolbutamide as internal standard) and 10 μL of NADPH co-factor solution to starting plate (T0: 100% of the parent compound without any reaction) were added to the plates. The reaction was stopped by adding 300 μL of the cold (4° C.) stop solution to the other plates in the following order: T10 first, then T30 and T60.
(§6) The samples were centrifuged at 4,000 rpm for 20 min and transferred to Bioanalytical Services for liquid chromatography-mass spectrometry (LC-MS)/MS (Waters UPLC/API 4000, 10 μL injection) analysis.

[8] = Human liver microsomal stability/clearance; format: in vitro ADME; conditions: human liver microsomes; first value of Human/Mouse cell; read-out: Liver microsomal clearance (Human)
Description: as §2, §3, §4, §5, §6

[9] = test system: MDA-MB-435 (breast); assay: Anti-proliferative activity, MDA-MB-435; format: cell-based; conditions: Homo sapiens, read-out: Cell proliferation, IC50

For `COc1ccc2c(c1)C(c1ccc(Cl)cc1)=N[C@@H](COS(C)(=O)=O)c1nnc(C)n1-2` [Compound 1, (R)-(6-(4-chlorophenyl)-8-methoxy-1-methyl-4H-benzo[f]-[1,2,4]triazolo[4,3-a][1,4]diazepin-4-yl)methyl methanesulfonate], the IC50 [1] was 5.09 µM, the IC50 [2] was 2630 nM and the “BW change (%) (in words)” value [3] was “very low”. It also gave an AUC ([4]; IV) of 19.7 µM·h, an MRT ([4]; IV) of 4.9 h and a clearance ([4]; IV) of 5.6 mL/min/kg. For the same compound, the AUC ([4]; PO) was 17.3 µM·h, the bioavailability ([4]; PO) was 92.3% and the “% TGI” value ([5]; 50 mpk) was 77%. For the same compound, the “% TGI” value ([5]; 100 mpk) was 84%, the IC50 [6] was 1520 nM and the microsomal CLint at 1 µM [7] was 4.7 µL/min/mg. It also gave a microsomal CLint at 1 µM [8] of 2.3 µL/min/mg and an IC50 [9] of 5.99 µM.

Reference: patent publication US9884874B2, “Bromodomain-inhibiting compounds and pharmaceutical composition comprising same for preventing or treating a cancer” (KAINOS MEDICINE, INC., priority 2014, dated 2018)
